These results are taken from PMC4050309, “Five New Guanacastane-Type Diterpenes from Cultures of the Fungus Psathyrella candolleana” (Natural Products and Bioprospecting, 2014).

pIC50: −log10 of the molar value.

Assay [1] deals with T1, mouse 11β-HSD1 (11β-hydroxysteroid dehydrogenase) (Mus musculus, UniProt P50172).
T1 construct: gene Hsd11b1; full-length cDNA, microsomal fraction of stably transfected HEK-293 cells
The assay can be described thus: scintillation proximity assay, [3H]cortisone to [3H]cortisol, microsomes overexpressing […]β-HSD1. In kind it is biochemical.

Assay [2] has as its target T2, human 11β-HSD1 (11β-hydroxysteroid dehydrogenase) (Homo sapiens, UniProt P28845).
T2 construct: gene HSD11B1; full-length cDNA, microsomal fraction of stably transfected HEK-293 cells
Described as above. The assay is classed as biochemical.

T2 sequence (P28845 whole entry): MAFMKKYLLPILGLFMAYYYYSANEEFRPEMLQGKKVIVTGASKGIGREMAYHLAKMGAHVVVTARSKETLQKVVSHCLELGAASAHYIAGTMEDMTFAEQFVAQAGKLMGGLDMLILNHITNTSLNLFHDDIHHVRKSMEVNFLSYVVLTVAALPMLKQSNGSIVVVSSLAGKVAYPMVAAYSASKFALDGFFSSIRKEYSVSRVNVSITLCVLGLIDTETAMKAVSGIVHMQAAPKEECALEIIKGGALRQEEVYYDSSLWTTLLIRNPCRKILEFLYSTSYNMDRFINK
T1 sequence (P50172 whole entry): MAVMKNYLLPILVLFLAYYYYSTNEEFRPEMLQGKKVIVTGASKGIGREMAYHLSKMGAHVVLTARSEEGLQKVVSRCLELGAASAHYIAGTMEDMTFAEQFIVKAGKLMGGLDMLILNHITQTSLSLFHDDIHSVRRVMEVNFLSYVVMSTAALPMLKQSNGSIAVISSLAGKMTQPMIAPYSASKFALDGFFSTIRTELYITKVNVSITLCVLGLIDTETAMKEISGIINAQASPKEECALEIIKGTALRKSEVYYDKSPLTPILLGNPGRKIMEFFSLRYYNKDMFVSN

`CC(C)C1=C(O)C(=O)C2=CC3=C(CO)C(=O)CC[C@@]3(C)CC[C@@]21C` [compound 3, Guanacastepene R]: the pIC50 in assay [1] was 4.86; in assay [2], 5.21.

For `CC1(C)[C@@H](O[C@H]2O[C@H](C(=O)O)[C@@H](O)[C@H](O)[C@H]2O[C@@H]2O[C@H](C(=O)O)[C@@H](O)[C@H](O)[C@H]2O)CC[C@]2(C)[C@H]3C(=O)C=C4[C@@H]5C[C@@](C)(C(=O)O)CC[C@]5(C)CC[C@@]4(C)[C@]3(C)CC[C@@H]12` [glycyrrhizinic acid], the pIC50 in assay [1] is 8.19; in assay [2], 8.38.

In general, pIC50 refers to the negative decadic logarithm of the IC50, by convention in mol/L.
